Laboratory results taken from patent US7148249B2, “Indolinones substituted by heterocycles, the preparation thereof and their use as medicaments” (Boehringer Ingelheim Pharma GmbH & Co. KG, priority 2002, dated 2006).

How the values were obtained:
[1] = system: Human umbilical endothelial cells (HUVEC); assay: Inhibition of VEGF165-stimulated HUVEC proliferation (3H-thymidine incorporation); assay type: cell-based; settings: Homo sapiens; HUVEC proliferation stimulated with 5 ng/ml VEGF165 and 10 μg/ml heparin; 76 h incubation + 16 h 3H-thymidine
Procedure: Human umbilical endothelial cells (HUVEC) were cultivated in IMDM (Gibco BRL), supplemented with 10% foetal calf serum (FBS) (Sigma), 50 μM of β-mercaptoethanol (Fluka), standard antibiotics, 15 μg/ml of endothelial cell growth factor (ECGS, Collaborative Biomedical Products) and 100 μg/ml of heparin (Sigma) on gelatine-coated culture dishes (0.2% gelatine, Sigma) at 37° C., under 5% CO2 in a water-saturated atmosphere.
In order to investigate the inhibitory activity of the compounds according to the invention the cells were “starved” for 16 hours, i.e. kept in culture medium without growth factors (ECGS+heparin). The cells were detached from the culture dishes using trypsin/EDTA and washed once in serum-containing medium. Then they were seeded out in amounts of 2.5×10^3 cells per well.
The proliferation of the cells was stimulated with 5 ng/ml of VEGF165 (vascular endothelial growth factor; H. Weich, GBF Braunschweig) and 10 μg/ml of heparin. As a control, 6 wells in each dish were not stimulated.
The compounds according to the invention were dissolved in 100% dimethylsulphoxide and added to the cultures in various dilutions as triple measurements, the maximum dimethylsulphoxide concentration being 0.3%.
The cells were incubated for 76 hours at 37° C., then for a further 16 hours ^3H-thymidine (0.1 μCi/well, Amersham) was added in order to determine the DNA synthesis. Then the radioactively labelled cells were immobilised on filter mats and the radioactivity incorporated was measured in a β-counter. In order to determine the inhibitory activity of the compounds according to the invention the mean value of the non-stimulated cells was subtracted from the mean value of the factor-stimulated cells (in the presence or absence of the compounds according to the invention).
The relative cell proliferation was calculated as a percentage of the control (HUVEC without inhibitor) and the concentration of active substance which inhibits the proliferation of the cells by 50% (IC50) was determined.

SMILES	melting point	IC50 [1] [nM]
CN(C)Cc1ccc(N/C(=C2\C(=O)Nc3ccccc32)c2ccc3nc[nH]c3c2)cc1 [(ag), 3-(Z)-{1-[4-(dimethylaminomethyl)-phenylamino]-1-(benzimidazol-5-yl)-methylene}-2-indolinone]	273 to 277 °C (dec.)	31
O=C1Nc2cc(Cl)ccc2/C1=C(/Nc1ccc(CN2CCCC2)cc1)c1ccc2nc[nH]c2c1 [(ai), 3-(Z)-{1-[4-(pyrrolidin-1-yl-methyl)-phenylamino]-1-(benzimidazol-5-yl)-methylene}-6-chloro-2-indolinone]	277 to 279 °C	3
CN(C)CC(=O)N(C)c1ccc(N/C(=C2\C(=O)Nc3ccccc32)c2ccc3c(c2)OCO3)cc1 [(aj), 3-(Z)-{1-(4-[N-methyl-N-(dimethylaminomethylcarbonyl)-amino]-phenylamino)-1-(3,4-methylenedioxyphenyl)-methylene}-2-indolinone]	221 to 222 °C	13
CN(C)CC(=O)N(C)c1ccc(N/C(=C2\C(=O)Nc3cc(Cl)ccc32)c2ccc3c(c2)ncn3C)cc1 [(ak), 3-(Z)-{1-(4-[N-methyl-N-(dimethylaminomethylcarbonyl)-amino]-phenylamino)-1-(1-methyl-benzimidazol-5-yl)-methylene}-6-chloro-2-indolinone]	270 °C	30
CCCS(=O)(=O)N(CCN(C)C)c1ccc(N/C(=C2\C(=O)Nc3cc(Cl)ccc32)c2ccncc2)cc1 [(ax), 3-(Z)-{1-(4-[N-(propanesulphonyl)-N-(2-dimethylaminoethyl)-amino]-phenylamino)-1-(4-pyridyl)-methylene}-6-chloro-2-indolinone]	228 to 232 °C	37
Cc1nc2ccc(/C(Nc3ccc(CN4CCCC4)cc3)=C3/C(=O)Nc4cc(Cl)ccc43)cc2[nH]1 [(ay), 3-(Z)-{1-[4-(pyrrolidin-1-yl-methyl)-phenylamino]-1-(2-methyl-benzimidazol-5-yl)-methylene}-6-chloro-2-indolinone]	295 to 297 °C (dec.)	19

Second part, led by results:

melting point	SMILES	IC50 [1] [nM]
288 °C (dec.)	CN(C)Cc1ccc(N/C(=C2\C(=O)Nc3cc(Cl)ccc32)c2ccc3c(c2)ncn3C)cc1 [(f), 3-(Z)-{1-[4-(dimethylaminomethyl)-phenylamino]-1-(1-methyl-benzimidazol-5-yl)-methylene}-6-chloro-2-indolinone]	2
153 to 154 °C	CCNCc1ccc(N/C(=C2\C(=O)Nc3cc(F)ccc32)c2ccc3c(c2)OCCO3)cc1 [(l), 3-(Z)-{1-[4-(ethylaminomethyl)-phenylamino]-1-(3,4-ethylenedioxyphenyl)-methylene}-6-fluoro-2-indolinone]	10
266 °C	CCNCc1ccc(N/C(=C2\C(=O)Nc3cc(C(=O)OC)ccc32)c2ccc3c(c2)OCCO3)cc1 [(u), 3-(Z)-{1-(4-[ethylamino-methyl]-phenylamino)-1-(3,4-ethylenedioxyphenyl)-methylene}-6-methoxycarbonyl-2-indolinone]	0.8
271 to 273 °C	COC(=O)c1ccc2c(c1)NC(=O)/C2=C(\Nc1ccc(CN2CCN(C)CC2)cc1)c1ccc2c(c1)OCCO2 [(v), 3-(Z)-{1-(4-[4-methylpiperazin-1-yl-methyl]-phenylamino)-1-(3,4-ethylenedioxy-phenyl)-methylene}-6-methoxycarbonyl-2-indolinone]	1
